The text below walks through data of patent publication US8558002B2, “Sulfoximines as kinase inhibitors” (Allergan, Inc., priority 2006, dated 2013).

Experiment [1] addresses T1, PDGFRβ (Homo sapiens, UniProt P09619).
T1 construct: 200-300 ng purified cytoplasmic domain PDGFR-b protein (Millipore); purchased Millipore
Briefly: PDGFRβ Kinase Assay (poly-Glu-Tyr ELISA). Conditions: purified cytoplasmic domain PDGFR-b protein, 36 μM ATP. It counts as biochemical. Here is the method:
Biochemical PDGFRβ kinase assays were performed in 96 well microtiter plates that were coated overnight with 75 μg of poly-Glu-Tyr (4:1) in 10 mM Phosphate Buffered Saline (PBS), pH 7.4. The coated plates were washed with 2 mls per well PBS+0.05% Tween-20 (PBS-T), blocked by incubation with PBS containing 1% BSA, then washed with 2 mls per well PBS-T prior to starting the reaction. Reactions were carried out in 100 μL reaction volumes containing 36 μM ATP in kinase buffer (50 mM Hepes buffer pH 7.4, 20 mM MgCl2, 0.1 mM MnCl2 and 0.2 mM Na3VO4). Test compounds were reconstituted in 100% DMSO and added to the reaction to give a final DMSO concentration of 5%. Reactions were initiated by the addition 20 ul per well of kinase buffer containing 200-300 ng purified cytoplasmic domain PDGFR-b protein (Millipore). Following a 60 minute incubation at 30° C., the reactions were washed 2 mls per well PBS-T. […] of a monoclonal anti-phosphotyrosine antibody-peroxidase conjugate diluted 1:10,000 in PBS-T was added to the wells for 30 minutes. Following a 2 mls per well wash with PBS-Tween-20, 100 μl of O-Phenylenediamine Dihydrochloride in phosphate-citrate buffer, containing urea hydrogen peroxide, was added to the wells for 7-10 minutes as a colorimetric substrate for the peroxidase. The reaction was terminated by the addition of 100 μl of 2.5N H2SO4 to each well and read using a microplate ELISA reader set at 492 nm. IC50 values for compound inhibition were calculated directly from graphs of optical density (arbitrary units) versus compound concentration following subtraction of blank values.

Experiment [2] concerns the target VEGFR1 (Homo sapiens, UniProt P17948). Description: VEGFR1 Kinase. It counts as biochemical.
The target of experiment [3] is T2, VEGFR2 (Homo sapiens, UniProt P35968). Briefly: VEGFR2 Cellular Assay (FLIPR, VEGF induced increases in intracellular calcium in HUVEC). The class given is cell-based. More on the design: host or cells: HUVEC. Conditions: VEGF165 stimulation (10 ng/mL), Fluo-4. Here is the method: Automated FLIPR (Fluorometric Imaging Plate Reader) technology was used to screen for inhibitors of VEGF induced increases in intracellular calcium levels in fluorescent dye loaded endothelial cells. HUVEC (human umbilical vein endothelial cells) (Clonetics) were seeded in 384-well fibronectin coated black-walled plates overnight @ 37° C./5% CO2. Cells were loaded with calcium indicator Fluo-4 for 45 minutes at 37° C. Cells were washed 2 times (El×405, Biotek Instruments) to remove extracellular dye. For screening, cells were pre-incubated with test agents for 30 minutes, at a single concentration (10 uM) or at concentrations ranging from 0.0001 to 10.0 uM followed by VEGF165 stimulation (10 ng/mL). Changes in fluorescence at 516 nm were measured simultaneously in all 384 wells using a cooled CCD camera. Data were generated by determining max-min fluorescence levels for unstimulated, stimulated, and drug treated samples. IC50 values for test compounds were calculated from % inhibition of VEGF stimulated responses in the absence of inhibitor.
For orientation: Calcium assays in cells follow changes in intracellular calcium, usually with a dye or a luminescent sensor.
Target sequence in this assay (P35968 20-1356): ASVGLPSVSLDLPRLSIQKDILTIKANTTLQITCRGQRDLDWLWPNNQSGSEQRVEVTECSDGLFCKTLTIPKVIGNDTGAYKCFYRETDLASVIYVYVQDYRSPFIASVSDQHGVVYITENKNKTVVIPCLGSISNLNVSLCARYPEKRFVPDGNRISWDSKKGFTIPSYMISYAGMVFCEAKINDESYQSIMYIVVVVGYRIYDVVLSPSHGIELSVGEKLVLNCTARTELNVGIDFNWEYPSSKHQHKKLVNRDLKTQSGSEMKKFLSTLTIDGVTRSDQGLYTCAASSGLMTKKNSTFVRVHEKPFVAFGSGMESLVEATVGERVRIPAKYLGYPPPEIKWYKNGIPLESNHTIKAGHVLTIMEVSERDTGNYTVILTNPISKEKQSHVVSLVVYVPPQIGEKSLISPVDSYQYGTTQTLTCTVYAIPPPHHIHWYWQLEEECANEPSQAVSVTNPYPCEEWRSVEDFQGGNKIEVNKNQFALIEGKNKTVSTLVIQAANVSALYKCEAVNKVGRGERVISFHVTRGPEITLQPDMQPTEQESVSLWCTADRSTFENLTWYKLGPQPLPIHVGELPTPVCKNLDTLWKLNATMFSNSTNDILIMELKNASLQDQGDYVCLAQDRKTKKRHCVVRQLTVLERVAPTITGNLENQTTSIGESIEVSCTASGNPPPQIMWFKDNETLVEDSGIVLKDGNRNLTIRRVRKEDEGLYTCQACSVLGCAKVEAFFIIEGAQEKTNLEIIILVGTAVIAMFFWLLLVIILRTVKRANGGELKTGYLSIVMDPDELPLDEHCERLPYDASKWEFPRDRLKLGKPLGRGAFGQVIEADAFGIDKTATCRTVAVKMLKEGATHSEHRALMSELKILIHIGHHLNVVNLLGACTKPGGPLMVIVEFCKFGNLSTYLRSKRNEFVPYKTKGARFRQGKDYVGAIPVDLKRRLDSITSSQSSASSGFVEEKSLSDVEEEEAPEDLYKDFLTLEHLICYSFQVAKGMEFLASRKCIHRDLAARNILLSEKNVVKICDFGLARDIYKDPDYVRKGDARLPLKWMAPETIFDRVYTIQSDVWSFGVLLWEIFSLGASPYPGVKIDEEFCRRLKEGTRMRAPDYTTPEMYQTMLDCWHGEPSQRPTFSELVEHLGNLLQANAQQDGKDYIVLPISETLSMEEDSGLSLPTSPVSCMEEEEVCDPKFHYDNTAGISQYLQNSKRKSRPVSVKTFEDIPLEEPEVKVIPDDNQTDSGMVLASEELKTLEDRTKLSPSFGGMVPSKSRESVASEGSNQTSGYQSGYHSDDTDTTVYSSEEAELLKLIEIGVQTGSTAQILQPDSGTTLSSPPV

For experiment [4], the target named is T2, VEGFR2. Briefly: VEGFR2 Kinase Assay (biochemical KDR kinase, poly-Glu-Tyr ELISA). Conditions: purified cytoplasmic domain KDR protein, 2.7 μM ATP. Details: 200-300 ng purified cytoplasmic domain KDR protein; purchased BPS Bioscience. Here is the method:
Biochemical KDR kinase assays were performed in 96 well microtiter plates that were coated overnight with 75 μg/well of poly-Glu-Tyr (4:1) in 10 mM Phosphate Buffered Saline (PBS), pH 7.4. The coated plates were washed with 2 mls per well PBS+0.05% Tween-20 (PBS-T), blocked by incubation with PBS containing 1% BSA, then washed with 2 mls per well PBS-T prior to starting the reaction. Reactions were carried out in […] reaction volumes containing 2.7 μM ATP in kinase buffer (50 mM Hepes buffer pH 7.4, 20 mM MgCl2, 0.1 mM MnCl2 and 0.2 mM Na3VO4). Test compounds were reconstituted in 100% DMSO and added to the reaction to give a final DMSO concentration of 5%. Reactions were initiated by the addition 20 ul per well of kinase buffer containing 200-300 ng purified cytoplasmic domain KDR protein (BPS Bioscience, San Diego, Calif.). Following a 15 minute incubation at 30° C., the reactions were washed 2 mls per well PBS-T. 100 μl of a monoclonal anti-phosphotyrosine antibody-peroxidase conjugate diluted 1:10,000 in PBS-T was added to the wells for 30 minutes. Following a 2 mls per well wash with PBS-Tween-20, 100 μl of O-Phenylenediamine Dihydrochloride in phosphate-citrate buffer, containing urea hydrogen peroxide, was added to the wells for 7-10 minutes as a colorimetric substrate for the peroxidase. The reaction was terminated by the addition of 100 μl of 2.5NH2SO4 to each well and read using a microplate ELISA reader set at 492 nm. IC50 values for compound inhibition were calculated directly from graphs of optical density (arbitrary units) versus compound concentration following subtraction of blank values.
Target sequence in this assay (P35968 786-1356 limits assumed): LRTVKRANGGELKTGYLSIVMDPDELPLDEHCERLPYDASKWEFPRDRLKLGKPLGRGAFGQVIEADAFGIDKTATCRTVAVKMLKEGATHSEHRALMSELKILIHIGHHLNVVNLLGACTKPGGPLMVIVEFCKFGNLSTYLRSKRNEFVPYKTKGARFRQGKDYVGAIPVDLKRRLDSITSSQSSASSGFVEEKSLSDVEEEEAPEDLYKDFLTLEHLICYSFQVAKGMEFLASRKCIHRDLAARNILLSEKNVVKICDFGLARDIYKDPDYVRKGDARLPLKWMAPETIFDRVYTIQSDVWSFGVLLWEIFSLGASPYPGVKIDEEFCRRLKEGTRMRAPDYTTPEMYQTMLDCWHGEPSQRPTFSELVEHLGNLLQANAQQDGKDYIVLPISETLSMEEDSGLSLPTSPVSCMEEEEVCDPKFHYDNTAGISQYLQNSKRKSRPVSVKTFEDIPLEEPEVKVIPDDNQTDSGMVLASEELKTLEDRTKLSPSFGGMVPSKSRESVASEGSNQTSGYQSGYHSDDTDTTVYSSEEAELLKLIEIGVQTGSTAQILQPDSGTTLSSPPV
Background: ELISA stands for enzyme-linked immunosorbent assay.

Chain of VEGFR1 (P17948 27-1338, species assumed): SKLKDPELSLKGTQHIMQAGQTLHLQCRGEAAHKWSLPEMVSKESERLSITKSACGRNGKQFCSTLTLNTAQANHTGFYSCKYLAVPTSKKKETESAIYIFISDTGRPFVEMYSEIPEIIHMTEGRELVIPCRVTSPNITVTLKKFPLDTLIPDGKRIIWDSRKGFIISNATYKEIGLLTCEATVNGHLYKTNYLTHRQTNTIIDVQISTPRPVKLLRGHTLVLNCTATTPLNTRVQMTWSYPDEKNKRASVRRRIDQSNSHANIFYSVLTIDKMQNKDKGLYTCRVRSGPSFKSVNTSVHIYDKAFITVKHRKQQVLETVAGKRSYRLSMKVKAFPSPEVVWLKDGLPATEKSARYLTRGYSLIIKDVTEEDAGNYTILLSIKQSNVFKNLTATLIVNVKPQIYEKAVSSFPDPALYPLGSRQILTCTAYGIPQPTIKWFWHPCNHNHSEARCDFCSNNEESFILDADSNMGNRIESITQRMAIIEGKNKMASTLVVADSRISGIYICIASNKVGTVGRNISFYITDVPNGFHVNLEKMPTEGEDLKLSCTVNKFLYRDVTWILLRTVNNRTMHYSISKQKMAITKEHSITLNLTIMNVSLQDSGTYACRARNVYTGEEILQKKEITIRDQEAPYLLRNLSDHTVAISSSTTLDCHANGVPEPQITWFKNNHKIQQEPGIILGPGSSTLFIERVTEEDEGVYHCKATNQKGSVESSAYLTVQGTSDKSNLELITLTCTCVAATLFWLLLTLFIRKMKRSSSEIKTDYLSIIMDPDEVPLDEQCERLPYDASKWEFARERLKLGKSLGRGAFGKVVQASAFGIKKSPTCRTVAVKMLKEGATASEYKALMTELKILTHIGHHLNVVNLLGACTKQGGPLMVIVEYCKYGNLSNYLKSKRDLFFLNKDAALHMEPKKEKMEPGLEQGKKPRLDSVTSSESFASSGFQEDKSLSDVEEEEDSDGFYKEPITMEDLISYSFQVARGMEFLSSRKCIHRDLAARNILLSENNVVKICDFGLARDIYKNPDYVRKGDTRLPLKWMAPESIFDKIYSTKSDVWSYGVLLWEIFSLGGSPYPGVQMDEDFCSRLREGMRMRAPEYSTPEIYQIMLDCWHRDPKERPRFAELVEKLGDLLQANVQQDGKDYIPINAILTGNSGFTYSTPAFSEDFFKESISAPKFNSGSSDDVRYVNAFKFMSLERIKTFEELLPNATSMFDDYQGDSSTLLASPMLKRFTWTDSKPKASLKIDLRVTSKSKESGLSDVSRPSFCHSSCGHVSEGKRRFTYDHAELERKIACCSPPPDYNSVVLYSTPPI
T1 sequence (P09619 554-1106 limits assumed): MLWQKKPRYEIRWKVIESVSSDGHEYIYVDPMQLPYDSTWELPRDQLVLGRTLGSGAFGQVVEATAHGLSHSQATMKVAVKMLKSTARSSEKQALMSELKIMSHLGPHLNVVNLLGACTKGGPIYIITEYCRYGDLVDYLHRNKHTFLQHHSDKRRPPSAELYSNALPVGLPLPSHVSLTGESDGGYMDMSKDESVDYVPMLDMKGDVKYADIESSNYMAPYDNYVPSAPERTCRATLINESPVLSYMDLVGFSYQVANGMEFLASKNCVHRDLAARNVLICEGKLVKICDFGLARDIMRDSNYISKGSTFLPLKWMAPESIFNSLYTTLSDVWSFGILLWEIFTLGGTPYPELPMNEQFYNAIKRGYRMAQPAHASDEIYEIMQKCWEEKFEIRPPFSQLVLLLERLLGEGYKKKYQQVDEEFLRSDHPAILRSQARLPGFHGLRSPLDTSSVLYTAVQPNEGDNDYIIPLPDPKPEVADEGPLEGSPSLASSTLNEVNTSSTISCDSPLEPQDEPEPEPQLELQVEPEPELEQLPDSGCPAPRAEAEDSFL

With `COC(=O)CCCCS(=O)(CCCCC(=O)OC)=NC(=O)c1cnc(N)c(C#Cc2cccc(C(=O)Nc3cc(C)ccc3F)c2)c1` [Example 14, Dimethyl 5,5′-[N-({6-amino-5-[(3-{[(2-fluoro-5-methylphenyl)amino]carbonyl}phenyl)ethynyl]pyridin-3-yl}carbonyl)sulfonimidoyl]dipentanoate], the IC50 (commonly the concentration that inhibits the measured activity by half) in experiment [1] is 50 nM; in experiment [2], 14 nM; in experiment [3] it was below 1 nM; in experiment [4], 11 nM.

With `COC(=O)CCCCS(=O)(CCCCC(=O)OC)=NC(=O)c1cnc(N)c(C#Cc2cccc(NC(=O)c3ccc(F)c(Cl)c3)c2)c1` [Example 4, Dimethyl 5,5′-(N-{[6-amino-5-({3-[(3-chloro-4-fluorobenzoyl)amino]phenyl}ethynyl)pyridin-3-yl]carbonyl}sulfonimidoyl)dipentanoate], the figures for the IC50 in experiment [1], in experiment [3] and in experiment [4] were 34 nM, 2 nM and 8 nM, respectively.

For `COC(=O)CCCCS(=O)(CCCCC(=O)OC)=NC(=O)c1cnc(N)c(C#Cc2cccc(NC(=O)c3cc(C(F)(F)F)ccc3F)c2)c1` [Example 10, Dimethyl 5,5′-[N-({6-amino-5-[(3-{[2-fluoro-5-(trifluoromethyl)benzoyl]amino}phenyl)ethynyl]pyridin-3-yl}carbonyl)sulfonimidoyl]dipentanoate], the IC50 in experiment [1] was 69 nM; in experiment [3], 6 nM; in experiment [4] it was 20 nM.

In the case of `COC(=O)CCCCS(=O)(CCCCC(=O)OC)=NC(=O)c1cnc(N)c(C#Cc2cccc(C(=O)Nc3cccc(C)c3)c2)c1` [Example 12, Dimethyl 5,5′-[N-({6-amino-5-[(3-{[(3-methylphenyl)amino]carbonyl}phenyl)ethynyl]pyridin-3-yl}carbonyl)sulfonimidoyl]dipentanoate], the half-inhibitory concentration (IC50) came out at 57 nM in experiment [1], 1 nM in experiment [3] and 8 nM in experiment [4].

With `COC(=O)CCCCS(=O)(CCCCC(=O)OC)=NC(=O)c1cnc(N)c(C#Cc2cccc(C(=O)Nc3cccc(OC)c3)c2)c1` [Example 11, Dimethyl 5,5′-[N-({6-amino-5-[(3-{[(3-methoxyphenyl)amino]carbonyl}phenyl)ethynyl]pyridin-3-yl}carbonyl)sulfonimidoyl]dipentanoate], the half-inhibitory concentration (IC50) in experiment [1] amounted to 38 nM; in experiment [3], 2 nM; in experiment [4], 4 nM.

For the compound `COC(=O)CCCCS(=O)(CCCCC(=O)OC)=NC(=O)c1cnc(N)c(C#Cc2cccc(NC(=O)c3cccc(C(F)(F)F)c3)c2)c1` [Example 5, Dimethyl 5,5′-[N-({6-amino-5-[(3-{[3-(trifluoromethyl)benzoyl]amino}phenyl)ethynyl]pyridin-3-yl}carbonyl)sulfonimidoyl]dipentanoate], the IC50 is 10 nM in experiment [1], 3 nM in experiment [3] and 10 nM in experiment [4].

Regarding `COC(=O)CCCCS(=O)(CCCCC(=O)OC)=NC(=O)c1cnc(N)c(C#Cc2cccc(NC(=O)Nc3cc(C)ccc3F)c2)c1` [Example 18, Dimethyl 5,5′-{N-[(6-amino-5-{[3-({[(2-fluoro-5-methylphenyl)amino]carbonyl}amino)phenyl]ethynyl}pyridin-3-yl)carbonyl]sulfonimidoyl}dipentanoate], the figures for the half-maximal inhibitory concentration (IC50) in experiment [3] and in experiment [4] were 23 nM and 10 nM, respectively.

For `COC(=O)CCCCS(=O)(CCCCC(=O)OC)=NC(=O)c1cnc(N)c(C#Cc2cccc(NC(=O)c3cccc(SC)c3)c2)c1` [Example 3, Dimethyl 5,5′-[N-({6-amino-5-[(3-{[3-(methylthio)benzoyl]amino}phenyl)ethynyl]pyridin-3-yl}carbonyl)sulfonimidoyl]dipentanoate], the concentration for half-maximal inhibition (IC50) turned out to be 4 nM in experiment [3] and 5 nM in experiment [4].

As to `COC(=O)CCCCS(=O)(CCCCC(=O)OC)=NC(=O)c1cnc(N)c(C#Cc2cccc(C(=O)Nc3cc(C(C)(C)C)on3)c2)c1` [Example 16, Dimethyl 5,5′-[N-({6-amino-5-[(3-{[(5-tert-butylisoxazol-3-yl)amino]carbonyl}phenyl)ethynyl]pyridin-3-yl}carbonyl)sulfonimidoyl]dipentanoate], the figures for the IC50 in experiment [1], in experiment [2] and in experiment [4] were 20 nM, 27 nM and 28 nM, respectively.

With `COC(=O)CCCCS(=O)(CCCCC(=O)OC)=NC(=O)c1cnc(N)c(C#Cc2cccc(NC(=O)c3cccc(C)c3)c2)c1` [Example 1, Dimethyl 5,5′-(N-{[6-amino-5-({3-[(3 methylbenzoyl)amino]phenyl}ethynyl)pyridin-3-yl]carbonyl}sulfonimidoyl)dipentanoate], the IC50 in experiment [1] was 25 nM; in experiment [3] it was below 1 nM; in experiment [4] it was 9 nM.

`COC(=O)CCCCS(=O)(CCCCC(=O)OC)=NC(=O)c1cnc(N)c(C#Cc2cccc(C(=O)Nc3ccc(OC)c(Cl)c3)c2)c1` [Example 13, Dimethyl 5,5′-[N-({6-amino-5-[(3-{[(3-chloro-4-methoxyphenyl)amino]carbonyl}phenyl)ethynyl]pyridin-3-yl}carbonyl)sulfonimidoyl]dipentanoate]: the IC50 in experiment [1] is 38 nM; in experiment [3], 5 nM; in experiment [4] it was 9 nM.

In the case of `COC(=O)CCCCS(=O)(CCCCC(=O)OC)=NC(=O)c1cnc(N)c(C#Cc2cccc(NC(=O)c3cccc(Cl)c3)c2)c1` [Example 6], the IC50 amounted to 21 nM in experiment [1], 1 nM in experiment [3] and 11 nM in experiment [4].

Take `COC(=O)CCCCS(=O)(CCCCC(=O)OC)=NC(=O)c1cnc(N)c(C#Cc2cccc(C(=O)Nc3ccc(Cl)c(C(F)(F)F)c3)c2)c1` [Example 17, Dimethyl 5,5′-{N-[(6-amino-5-{[3-({[4-chloro-3-(trifluoromethyl)phenyl]amino}carbonyl)phenyl]ethynyl}pyridin-3-yl)carbonyl]sulfonimidoyl}dipentanoate]: the half-maximal inhibitory concentration (IC50) was determined as 36 nM in experiment [1], 32 nM in experiment [2] and 37 nM in experiment [4].

As to `COC(=O)CCCCS(=O)(CCCCC(=O)OC)=NC(=O)c1cnc(N)c(C#Cc2cccc(C(=O)Nc3ccc(F)c(Cl)c3)c2)c1` [Example 15, Dimethyl 5,5′-[N-({6-amino-5-[(3-{[(3-chloro-4-fluorophenyl)amino]carbonyl}phenyl)ethynyl]pyridin-3-yl}carbonyl)sulfonimidoyl]dipentanoate], the IC50 in experiment [1] is 68 nM; in experiment [3], 11 nM; in experiment [4] it was 15 nM.

For `COC(=O)CCCCS(=O)(CCCCC(=O)OC)=NC(=O)c1cnc(N)c(C#Cc2cccc(NC(=O)c3cccc([S+](C)[O-])c3)c2)c1` (stereo not shown) [Example 8, Dimethyl 5,5′-[N-({6-amino-5-[(3-{[3-(methylsulfinyl)benzoyl]amino}phenyl)ethynyl]pyridin-3-yl}carbonyl)sulfonimidoyl]dipentanoate], the half-maximal inhibitory concentration (IC50) in experiment [3] was found to be 6 nM; in experiment [4] it was 12 nM.
